The results in this text go back to article PMC3914206.

Test [1] has as its target T1, panel of 442 kinases (Homo sapiens, UniProt O95835).
T1 construct: purchased KINOMEscan
T1 sequence (O95835 1-1130): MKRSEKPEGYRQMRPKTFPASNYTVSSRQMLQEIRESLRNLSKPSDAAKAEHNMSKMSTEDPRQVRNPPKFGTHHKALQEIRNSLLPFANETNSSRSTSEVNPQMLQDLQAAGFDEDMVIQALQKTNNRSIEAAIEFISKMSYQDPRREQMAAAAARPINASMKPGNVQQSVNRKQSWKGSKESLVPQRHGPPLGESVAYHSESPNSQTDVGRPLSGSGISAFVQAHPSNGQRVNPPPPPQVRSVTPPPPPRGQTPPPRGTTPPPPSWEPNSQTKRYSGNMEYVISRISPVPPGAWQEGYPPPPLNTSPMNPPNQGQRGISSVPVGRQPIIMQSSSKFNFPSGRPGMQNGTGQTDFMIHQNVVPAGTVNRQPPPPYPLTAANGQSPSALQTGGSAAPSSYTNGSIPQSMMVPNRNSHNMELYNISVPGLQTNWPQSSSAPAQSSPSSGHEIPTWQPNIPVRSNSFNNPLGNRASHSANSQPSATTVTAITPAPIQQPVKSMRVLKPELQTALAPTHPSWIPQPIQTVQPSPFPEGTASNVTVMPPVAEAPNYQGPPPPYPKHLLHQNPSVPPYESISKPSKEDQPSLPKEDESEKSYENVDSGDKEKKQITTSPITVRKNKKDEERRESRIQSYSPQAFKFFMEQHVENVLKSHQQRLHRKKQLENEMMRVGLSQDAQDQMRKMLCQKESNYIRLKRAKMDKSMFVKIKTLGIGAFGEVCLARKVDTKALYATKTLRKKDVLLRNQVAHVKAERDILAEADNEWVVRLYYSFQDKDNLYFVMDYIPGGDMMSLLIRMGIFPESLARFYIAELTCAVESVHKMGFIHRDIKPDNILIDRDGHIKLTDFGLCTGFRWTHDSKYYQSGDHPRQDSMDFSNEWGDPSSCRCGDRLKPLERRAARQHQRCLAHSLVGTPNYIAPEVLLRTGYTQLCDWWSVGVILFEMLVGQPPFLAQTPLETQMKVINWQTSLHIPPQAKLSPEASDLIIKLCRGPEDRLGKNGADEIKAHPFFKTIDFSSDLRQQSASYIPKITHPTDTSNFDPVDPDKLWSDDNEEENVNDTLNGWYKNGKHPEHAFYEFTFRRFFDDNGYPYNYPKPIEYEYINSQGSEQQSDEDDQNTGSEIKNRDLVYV
It is filed as binding. As to conditions: Compound Concentration 10 µM. The source says:
(§1) We assessed the selectivity of members of this scaffold using the KINOMEscan methodology across a near comprehensive panel of 442 kinases [[18,27]].

In test [2] the target is T2, panel of 442 kinases (Homo sapiens, UniProt Q9UEE5).
T2 construct: purchased KINOMEscan
T2 sequence (Q9UEE5 1-414): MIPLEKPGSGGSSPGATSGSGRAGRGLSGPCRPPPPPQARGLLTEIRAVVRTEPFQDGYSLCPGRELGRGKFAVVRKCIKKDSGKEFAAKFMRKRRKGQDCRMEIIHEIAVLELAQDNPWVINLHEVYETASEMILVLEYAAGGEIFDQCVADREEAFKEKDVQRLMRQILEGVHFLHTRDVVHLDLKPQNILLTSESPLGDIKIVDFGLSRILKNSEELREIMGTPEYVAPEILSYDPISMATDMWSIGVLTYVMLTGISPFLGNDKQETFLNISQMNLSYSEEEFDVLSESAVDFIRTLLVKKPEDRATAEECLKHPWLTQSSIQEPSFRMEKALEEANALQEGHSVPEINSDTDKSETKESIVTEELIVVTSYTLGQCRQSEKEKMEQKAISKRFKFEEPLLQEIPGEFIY
It is filed as binding. To be noted: Compound Concentration 10 µM.
Text: as §1

With `CCOc1cc(C(=O)N2CCC(N3CCN(C)CC3)CC2)ccc1Nc1ncc2c(n1)N(C1CCCC1)c1ccccc1C(=O)N2C` [Compound 26], the “KINOMEscan: LATS1” value at panel of 442 kinases [1] is reported as 100. For the same compound, the “KINOMEscan: DRAK1” value at panel of 442 kinases [2] was 100.
Consider `COc1cc(C(=O)N2CCC(N3CCN(C)CC3)CC2)ccc1Nc1ncc2c(n1)N(C)c1ccccc1C(=O)N2C` [15 (LRRK2-IN-1)], for which the “KINOMEscan: LATS1” value on panel of 442 kinases [1] was determined as 100. For the same compound, the “KINOMEscan: DRAK1” value at panel of 442 kinases [2] is given as 100.
For the compound `COc1cc(C(=O)N2CCC(N3CCN(C)CC3)CC2)ccc1Nc1ncc2c(n1)N(C1CCCC1)c1ccccc1C(=O)N2C` [Compound 25, 11-cyclopentyl-2-((2-methoxy-4-(4-(4-methylpiperazin-1-yl)piperidine-1-carbonyl)phenyl)amino)-5-methyl-5H-benzo[e]pyrimido[5,4-b][1,4]diazepin-6(11H)-one], the “KINOMEscan: LATS1” value on panel of 442 kinases [1] turned out to be 100. For the same compound, the “KINOMEscan: DRAK1” value at panel of 442 kinases [2] is listed as 100.
